The values below come from patent US20160130278A1 (TAISHO PHARMACEUTICAL CO., LTD, priority 2013, published 2016).

What is called IC50 is the concentration that inhibits the measured activity by half. Low readings indicate higher potency, high ones lower potency.

The assay concerns the target T1, human type 1 glycine transporter (GlyT1) (Homo sapiens, UniProt P48067).
T1 construct: T98G cells (glioma cells) expressing human type 1 glycine transporter (GlyT1) were used
T1 sequence (P48067 1-706): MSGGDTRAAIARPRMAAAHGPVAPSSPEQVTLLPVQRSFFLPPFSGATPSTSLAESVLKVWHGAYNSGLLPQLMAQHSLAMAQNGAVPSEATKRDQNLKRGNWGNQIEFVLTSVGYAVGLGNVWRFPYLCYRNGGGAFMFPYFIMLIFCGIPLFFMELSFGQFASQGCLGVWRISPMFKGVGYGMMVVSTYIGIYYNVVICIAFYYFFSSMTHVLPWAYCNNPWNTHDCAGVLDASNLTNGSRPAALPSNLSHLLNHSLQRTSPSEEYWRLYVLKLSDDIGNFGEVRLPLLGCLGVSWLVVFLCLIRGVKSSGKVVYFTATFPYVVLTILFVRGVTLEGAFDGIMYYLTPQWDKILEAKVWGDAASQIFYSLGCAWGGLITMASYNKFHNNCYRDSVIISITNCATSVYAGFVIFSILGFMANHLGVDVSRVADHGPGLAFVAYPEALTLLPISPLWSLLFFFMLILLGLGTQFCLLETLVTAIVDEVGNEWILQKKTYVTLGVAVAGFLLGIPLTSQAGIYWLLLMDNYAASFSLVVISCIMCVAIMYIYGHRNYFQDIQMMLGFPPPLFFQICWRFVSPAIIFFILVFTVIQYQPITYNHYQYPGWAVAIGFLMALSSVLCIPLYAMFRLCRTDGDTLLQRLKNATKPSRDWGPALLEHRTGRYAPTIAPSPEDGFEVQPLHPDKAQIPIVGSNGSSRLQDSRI
As to the kind of experiment: Glycine uptake inhibition experiment ([3H]glycine uptake). The class given is cell-based. The conditions noted are these: GlyT1. Summed up:
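T98G glioma cells expressing human GlyT1 were pretreated 10 min with compound in HEPES buffer pH 7.4 (0.2% BSA), then incubated with compound plus 250 nM final [3H]glycine for 15 min at room temperature. Intracellular radioactivity was counted after NaOH lysis; 10 μM ALX5407 defined non-specific uptake. IC50 came from 10^−9–10^−5 M curves.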
With `O=C(NC(c1cncc(Cl)c1)[C@]1(O)CC[C@@H](F)CC1)c1nccc(C(F)(F)F)c1Cl` (single isomer, unassigned) [Compound 243, 3-chloro-N-[(5-chloropyridin-3-yl)(cis-4-fluoro-1-hydroxycyclohexyl)methyl]-4-(trifluoromethyl)pyridine-2-carboxamide], the IC50 was 1500 nM.

In the case of `O=C(NC(c1ccccn1)[C@]1(O)CC[C@@H](F)CC1)c1nccc(C(F)(F)F)c1Cl` (single isomer, unassigned) [Compound 244, 3-chloro-N-[(cis-4-fluoro-1-hydroxycyclohexyl)(pyridin-2-yl)methyl]-4-(trifluoromethyl)pyridine-2-carboxamide], half-maximal inhibition (IC50) required 1000 nM.

In turn, `O=C(NC(c1cccc(F)c1Cl)[C@]1(O)CC[C@@H](F)CC1)c1cccc(C(F)(F)F)c1F` (single isomer, unassigned) [Compound 245, N-[(2-chloro-3-flurophenyl)(cis-4-fluoro-1-hydroxycyclohexyl)methyl]-2-fluoro-3-(trifluoromethyl)benzamide] came in with an IC50 of 990 nM.

`O=C(NC(c1cccc(F)c1Cl)[C@]1(O)CC[C@@H](F)CC1)c1cccc(C(F)(F)F)c1Cl` (single isomer, unassigned) [Compound 246, 2-chloro-N-[(2-chloro-3-fluorophenyl)(cis-4-fluoro-1-hydroxycyclohexyl)methyl]-3-(trifluoromethyl)benzamide] had a concentration for half-maximal inhibition (IC50) of 100 nM.

Molecule `O=C(NC(c1cccc(F)c1Cl)[C@]1(O)CC[C@@H](F)CC1)c1ccccc1Cl` (single isomer, unassigned) [Compound 247, 2-chloro-N-[(2-chloro-3-fluorophenyl)(cis-4-fluoro-1-hydroxycyclohexyl)methyl]benzamide] registered an IC50 of 1000 nM. Against the preceding molecule, the IC50 is about 10-fold higher.

In the case of `O=C(NC(c1cccc(F)c1Cl)[C@]1(O)CC[C@@H](F)CC1)c1cccc(Cl)c1Cl` (single isomer, unassigned) [Compound 248, 2,3-dichloro-N-[(2-chloro-3-fluorophenyl)(cis-4-fluoro-1-hydroxycyclohexyl)methyl]benzamide], inhibition was half-maximal at 900 nM (IC50).

Consider `O=C(NC(c1cccc(F)c1Cl)[C@]1(O)CC[C@@H](F)CC1)c1ncccc1Cl` (single isomer, unassigned) [Compound 249, 3-chloro-N-[(2-chloro-3-fluorophenyl)(cis-4-fluoro-1-hydroxycyclohexyl)methyl]pyridine-2-carboxamide], for which 1200 nM corresponded to half-maximal inhibition (IC50).

`O=C(NC(c1cccc(F)c1Cl)[C@]1(O)CC[C@@H](F)CC1)c1cnccc1Cl` (single isomer, unassigned) [Compound 250, 4-chloro-N-[(2-chloro-3-fluorophenyl)(cis-4-fluoro-1-hydroxycyclohexyl)methyl]pyridine-3-carboxamide] displayed an IC50 of 1900 nM.

`O=C(NC(c1cccc(F)c1Cl)[C@]1(O)CC[C@@H](F)CC1)c1cc(Cl)ccc1Cl` (single isomer, unassigned) [Compound 251, 2,5-dichloro-N-[(2-chloro-3-fluorophenyl)(cis-4-fluoro-1-hydroxycyclohexyl)methyl]benzamide] had an IC50 of 430 nM. Against the preceding molecule, the IC50 is about 4.4-fold lower.

`O=C(NC(c1cccc(F)c1Cl)[C@]1(O)CC[C@@H](F)CC1)c1cc(Cl)cc(Cl)c1` (single isomer, unassigned) [Compound 253, 3,5-dichloro-N-[(2-chloro-3-fluorophenyl)(cis-4-fluoro-1-hydroxycyclohexyl)methyl]benzamide] came in with a half-inhibitory concentration (IC50) of 8300 nM.

In turn, `O=C(NC(c1cccc(F)c1Cl)[C@]1(O)CC[C@@H](F)CC1)c1c(Cl)cccc1Cl` (single isomer, unassigned) [Compound 254, 2,6-dichloro-N-[(2-chloro-3-fluorophenyl)(cis-4-fluoro-1-hydroxycyclohexyl)methyl]benzamide] gave an IC50 of 1000 nM. This IC50 lies about 8.3-fold lower than the previous one.

In turn, `O=C(NC(c1cccc(F)c1Cl)[C@]1(O)CC[C@@H](F)CC1)c1nccc2ccccc12` (single isomer, unassigned) [Compound 255, N-[(2-chloro-3-fluorophenyl)(cis-4-fluoro-1-hydroxycyclohexyl)methyl]isoquinoline-1-carboxamidea] returned a concentration for half-maximal inhibition (IC50) of 120 nM. This IC50 lies about 8.3-fold lower than the previous one.

`O=C(NC(c1cccc(F)c1Cl)[C@]1(O)CC[C@@H](F)CC1)c1nccc2ncccc12` (single isomer, unassigned) [Compound 256, N-[(2-chloro-3-fluorophenyl)(cis-4-fluoro-1-hydroxycyclohexyl)methyl]-1,6-naphthyridin-5-carboxamide] gave a half-inhibitory concentration (IC50) of 2100 nM.

Consider `O=C(NC(c1ccnc(Cl)c1)[C@]1(O)CC[C@@H](F)CC1)c1nccc(C(F)(F)F)c1Cl` (single isomer, unassigned) [Compound 257], for which the 50% inhibitory concentration (IC50) was 440 nM.

Consider `O=C(NC(c1ccnc(Cl)c1)[C@]1(O)CC[C@@H](F)CC1)c1nccc(C(F)(F)F)c1Cl` (single isomer, unassigned) [Compound 258], for which the IC50 came out at 3000 nM.

For the molecule `O=C(NC(c1cccc(F)c1Cl)[C@]1(O)CC[C@@H](F)CC1)c1cnnc2ccccc12` (single isomer, unassigned) [Compound 259, N-[(2-chloro-3-fluorophenyl)(cis-4-fluoro-1-hydroxycyclohexyl)methyl]cinnoline-4-carboxamide], half-maximal inhibition (IC50) was put at 1000 nM.

`Cn1nc2c(c1C(=O)NC(c1cccc(F)c1Cl)[C@]1(O)CC[C@@H](F)CC1)CCCC2` (single isomer, unassigned) [Compound 260, N-[(2-chloro-3-fluorophenyl)(cis-4-fluoro-1-hydroxycyclohexyl)methyl]-2-methyl-4,5,6,7-tetrahydro-2H-indazol-3-carboxamide]: the IC50 came to 1700 nM.

In the case of `Cc1nc2ccccn2c1C(=O)NC(c1cccc(F)c1Cl)[C@]1(O)CC[C@@H](F)CC1` (single isomer, unassigned) [Compound 261, N-[(2-chloro-3-fluorophenyl)(cis-4-fluoro-1-hydroxycyclohexyl)methyl]-2-methylimidazo[1,2-a]pyridine-3-carboxamide], the IC50 was determined as 7400 nM.

For the molecule `O=C(NC(c1cccc(F)c1Cl)[C@]1(O)CC[C@@H](F)CC1)c1c(Cl)nc2ccccn12` (single isomer, unassigned) [Compound 262, 2-chloro-N-[(2-chloro-3-fluorophenyl)(cis-4-fluoro-1-hydroxycyclohexyl)methyl]imidazo[1,2-a]pyridine-3-carboxamide], the IC50 was 8800 nM.

Regarding `Cc1noc2nc(C3CC3)cc(C(=O)NC(c3cccc(F)c3Cl)[C@]3(O)CC[C@@H](F)CC3)c12` (single isomer, unassigned) [Compound 263, N-[(2-chloro-3-fluorophenyl)(cis-4-fluoro-1-hydroxycyclohexyl)methyl]-6-cyclopropyl-3-methyl[1,2]oxazolo[5,4-b]pyridine-4-carboxamide], the IC50 came out at 990 nM.

`O=C(NC(c1cccc(F)c1Cl)[C@]1(O)CC[C@@H](F)CC1)c1ccc(Cl)cc1Cl` (single isomer, unassigned) [Compound 264, 2,4-dichloro-N-[(2-chloro-3-fluorophenyl)(cis-4-fluoro-1-hydroxycyclohexyl)methyl]benzamide] yielded a half-inhibitory concentration (IC50) of 910 nM. This IC50 and that of the molecule before are within 1.5-fold of each other.

Regarding `O=C(NC(c1cccnc1)[C@]1(O)CC[C@@H](F)CC1)c1nccc(C(F)(F)F)c1Cl` (single isomer, unassigned) [Compound 265, 3-chloro-N-[(cis-4-fluoro-1-hydroxycyclohexyl)(pyridin-3-yl)methyl]-4-(trifluoromethyl)pyridine-2-carboxamide], inhibition was half-maximal at 890 nM (IC50).

The molecule `O=C(NC(c1cccnc1)[C@]1(O)CC[C@@H](F)CC1)c1nccc(C(F)(F)F)c1Cl` (single isomer, unassigned) [Compound 266, 3-chloro-N-[(cis-4-fluoro-1-hydroxycyclohexyl)(pyridin-3-yl)methyl]-4-(trifluoromethyl)pyridine-2-carboxamide] returned an IC50 of 1600 nM.

Consider `Cc1ccccc1C(=O)NC(c1cccc(F)c1Cl)[C@]1(O)CC[C@@H](F)CC1` (single isomer, unassigned) [Compound 267, N-[(2-chloro-3-fluorophenyl)(cis-4-fluoro-1-hydroxycyclohexyl)methyl]-2-methylbenzamide], for which the IC50 is 1900 nM.

`O=C(NC(c1cccc(F)c1Cl)[C@]1(O)CC[C@@H](F)CC1)c1cccnc1-n1cccn1` (single isomer, unassigned) [Compound 268, N-[(2-chloro-3-fluorophenyl)(cis-4-fluoro-1-hydroxycyclohexyl)methyl]-2-(1H-pyrazol-1-yl)pyridine-3-carboxamide] had an IC50 of 1700 nM.

Molecule `Cc1cc(C(=O)NC(c2cccc(F)c2Cl)[C@]2(O)CC[C@@H](F)CC2)c2cnn(C(C)C)c2n1` (single isomer, unassigned) [Compound 269, N-[(2-chloro-3-fluorophenyl)(cis-4-fluoro-1-hydroxycyclohexyl)methyl]-6-methyl-1-(propan-2-yl)-1H-pyrazolo[3,4-b]pyridine-4-carboxamide] registered an IC50 of 1700 nM.
